The record followed here is patent publication US5610174A, “Use of α1A -selective adrenoceptor agonists for the treatment of urinary incontinence” (priority 1995, dated 1997).

Where two headings read alike, the source gives them in different places.

For one experiment, the system named is α2-adrenoceptors. Nature of the experiment: Activity at human α2-adrenoceptors (overall statement). Format: cell-based. Conditions: result in words. Here is the method:
α2 -Adrenoceptor-Mediated Inhibition of Forskolin Stimulated Adenylyl Cyclase
The agonist activity of test compounds was assayed by measuring their ability to inhibit adenylyl cyclase in cells stably transfected with each of the three cloned human α2 -adrenoceptors. LM(tk-) cells expressing the α2A - or the α2C -, as well as Y1 cells expressing the α2B -adrenoceptor were used. […] The formation of cyclic AMP was measured in cultures incubated with DMEM containing 1 mM theophylline. Twelve concentrations of the test compounds (from 10 pM to 100 μM) were added to the incubation medium and incubated at 37° C. for 20 min. Following this incubation step, 10 μM forskolin was added to stimulate the formation of cyclic AMP, and the cultures were incubated for another 10 min. The reaction was stopped by replacing the incubation medium with 100 mM HCl . The intracellular levels of cyclic AMP were measured by radioimmunoassay. The data from concentration-response curves was fitted to a four-parameter logistic equation, by non-linear regression analysis, to determine the pEC50 and intrinsic activity.

The target of the next experiment is T1, human 5-HT2 receptor (Homo sapiens, UniProt P28223).
T1 construct: expressed in transfected cells; host or cells: COS-7 cells (text also names deposited cell line L-NGC-5-HT2, ATCC CRL 10287)
T1 sequence (P28223 whole entry): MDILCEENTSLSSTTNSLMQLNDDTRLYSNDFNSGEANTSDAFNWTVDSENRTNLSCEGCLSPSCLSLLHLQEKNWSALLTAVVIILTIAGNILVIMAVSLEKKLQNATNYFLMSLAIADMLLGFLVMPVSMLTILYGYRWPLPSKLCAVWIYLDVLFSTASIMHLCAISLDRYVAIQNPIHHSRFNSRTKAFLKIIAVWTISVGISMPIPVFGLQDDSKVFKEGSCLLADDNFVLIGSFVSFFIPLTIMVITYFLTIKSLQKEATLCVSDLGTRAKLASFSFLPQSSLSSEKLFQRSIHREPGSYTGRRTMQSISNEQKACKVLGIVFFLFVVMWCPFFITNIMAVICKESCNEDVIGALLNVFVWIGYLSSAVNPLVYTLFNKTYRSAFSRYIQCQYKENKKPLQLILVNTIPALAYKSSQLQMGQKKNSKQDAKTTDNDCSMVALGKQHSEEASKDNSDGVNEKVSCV
Nature of the experiment: Radioligand binding at human 5-HT2. To be noted: [3H]ketanserin; read-out: pKi 5-HT2 (converted). How it is done: The coding sequence of the human 5-HT2 receptor was obtained from a human brain cortex cDNA library, and cloned into the cloning site of pCEXV-3 eukaryotic expression vector. This construct was transfected into COS-7 cells by the DEAE-dextran method. Cells were harvested after 72 hours and lysed by sonication in 5 mM Tris-HCl, 5 mM EDTA, pH 7.5. This cell line was deposited with the ATCC on Oct. […] The cell lysates were centrifuged at 1000 rpm for 5 minutes at 4° C., and the supernatant was centrifuged at 30,000×g for 20 minutes at 4° C. The pellet was suspended in 50 mM Tris-HCl buffer (pH 7.7 at room temperature) containing 10 mM MgSO4, 0.5 mM EDTA, and 0.1% ascorbate. […] Nonspecific binding was defined by the addition of 10 μM mianserin. The bound radioligand was separated by filtration through GF/B filters using a cell harvester.

The target of experiment [1] is T2, rat atrial β-adrenoceptors (Rattus norvegicus, UniProt P18090).
T2 construct: Right atria were removed from rats and placed immediately into oxygenated Krebs solution; from tissue; host or cells: isolated, spontaneously beating rat right atrium
T2 sequence (P18090 whole entry): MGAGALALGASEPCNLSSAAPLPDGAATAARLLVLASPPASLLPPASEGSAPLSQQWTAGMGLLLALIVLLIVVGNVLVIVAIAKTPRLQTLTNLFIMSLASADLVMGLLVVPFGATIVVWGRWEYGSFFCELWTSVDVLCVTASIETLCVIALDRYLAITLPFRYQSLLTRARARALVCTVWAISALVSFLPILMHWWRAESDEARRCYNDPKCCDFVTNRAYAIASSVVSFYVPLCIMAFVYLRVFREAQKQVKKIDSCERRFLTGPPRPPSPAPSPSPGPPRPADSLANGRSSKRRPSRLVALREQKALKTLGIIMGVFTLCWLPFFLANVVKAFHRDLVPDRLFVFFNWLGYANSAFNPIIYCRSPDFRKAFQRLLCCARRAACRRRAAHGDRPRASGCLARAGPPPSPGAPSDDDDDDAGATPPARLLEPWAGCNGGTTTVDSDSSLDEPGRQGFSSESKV
Nature of the experiment: β-Adrenoceptor activity in isolated rat right atrium. Conditions: vs isoprenaline, up to 100 μM; for Ki: read-out: pKi β (rat atrial β-adrenoceptors) (converted). How it is done:
Determination of -Adrenoceptor Activity in the Isolated Rat Right Atrium
Right atria were removed from rats and placed immediately into oxygenated Krebs solution at 37° C. The Krebs solution was replaced three times at 5 min intervals and the tissues were tensioned three times to 0.5 g. In spontaneously beating atria, a control concentration effect curve to isoprenaline was generated. β-Adrenoceptor-mediated increase in atrial rate were measured as the response. […]. The antagonist effects of the test compounds were measured using the dose-ratio method, by comparing the shift in pEC50 for isoprenaline.

The target in the next experiment is T3, human 5-HT1Dα receptor (Homo sapiens, UniProt P28221).
T3 construct: expressed in transfected cells; host or cells: LM(tk-) clonal cell line, designated Ltk-8-30-84, ATCC CRL 10421 (cell lysates)
T3 sequence (P28221 whole entry): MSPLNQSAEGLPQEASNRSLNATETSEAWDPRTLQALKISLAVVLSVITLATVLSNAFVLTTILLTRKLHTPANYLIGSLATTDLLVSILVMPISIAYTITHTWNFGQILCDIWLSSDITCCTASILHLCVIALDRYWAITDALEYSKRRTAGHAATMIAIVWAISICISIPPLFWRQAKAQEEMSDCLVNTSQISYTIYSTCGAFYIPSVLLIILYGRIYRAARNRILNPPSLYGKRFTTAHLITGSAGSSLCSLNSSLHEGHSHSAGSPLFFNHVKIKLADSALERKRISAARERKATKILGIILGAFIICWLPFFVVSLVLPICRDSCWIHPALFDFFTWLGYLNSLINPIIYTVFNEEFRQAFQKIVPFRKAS
Nature of the experiment: Radioligand binding at human 5-HT1Dα. How it is done:
Human Serotonin Receptors
5-HT1Dα, 5-HT1Dβ, 5-HT1E, 5-HT1F, and 5-HT7 Receptors: The cell lysates of LM(tk-) clonal cell line stably transfected with the genes encoding each of these 5-HT receptor-subtypes were prepared as described above. The cell line for the 5-HT1Dαreceptor, designated as Ltk-8-30-84, was deposited on Apr. […] The cell for the 5-HT1Dβ receptor, designated as Ltk-11, was deposited on Apr. […] The cell line for the 5-HT1E receptor, designated 5-HT1E -7, was deposited on Nov. […] The cell line for the 5-HT1F receptor, designated L-5-HT1F, was deposited on Dec. […] The cell line for the 5-HT7 receptor, designated as L-5-HT-4B, was deposited on Oct. […] These preparations were suspended in 50 mM Tris-HCl buffer (pH 7.4 at 37° C.) containing 10 mM MgCl2, 0.2 mM EDTA, 10 μM pargyline, and 0.1% ascorbate. […] Nonspecific binding was determined in the presence of 10 μM serotonin. The bound radioligand was separated by filtration through GF/B filters using a cell harvester.

Experiment [2] deals with T4, human urethra (α1-adrenoceptor) (Homo sapiens, UniProt P35348).
T4 construct: Tissue samples from the proximal urethra of male humans; from tissue; host or cells: human male proximal urethra strips
T4 sequence (P35348 1-466): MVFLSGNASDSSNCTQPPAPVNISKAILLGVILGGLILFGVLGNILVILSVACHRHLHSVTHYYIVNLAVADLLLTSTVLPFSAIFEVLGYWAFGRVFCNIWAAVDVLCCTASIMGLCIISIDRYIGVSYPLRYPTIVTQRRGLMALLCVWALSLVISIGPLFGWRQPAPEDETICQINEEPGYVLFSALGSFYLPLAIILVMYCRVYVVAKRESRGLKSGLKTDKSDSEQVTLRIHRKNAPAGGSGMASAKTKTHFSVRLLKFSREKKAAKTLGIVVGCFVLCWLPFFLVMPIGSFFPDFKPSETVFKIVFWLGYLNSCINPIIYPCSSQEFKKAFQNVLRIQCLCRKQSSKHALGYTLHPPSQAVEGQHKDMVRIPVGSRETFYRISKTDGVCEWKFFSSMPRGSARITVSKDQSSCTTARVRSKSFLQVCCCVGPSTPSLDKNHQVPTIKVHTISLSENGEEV
Nature of the experiment: Contractile study in isolated human male urethra. To be noted: versus phenylephrine-induced contraction; read-out: pKB Human Urethra Male (converted). The source says:
In addition, similar studies were done using bladder neck tissue from female dogs. In order to identify the specific receptor subtype in each tissue, the pharmacological profile was compared to the profiles for these same drugs at the cloned human α1A, α1B, or α1C subtypes.
Tissue samples from the proximal urethra of male humans and male and female rabbits, as well as tissue samples from both the proximal urethra and bladder neck of male and female dogs were cut into transverse strips (3×10 mm) and suspended under 0.5 g tension in Krebs' physiological buffer at 37° C. To determine agonist potency (pEC50 )and antagonist affinity constants (pKB), concentration-effect curves to the non-selective agonist phenylepherine were constructed in the absence and in the presence of increasing concentrations of the antagonist. Up to four sequential curves were constructed in each tissue. Antagonists were allowed to equilibrate for 1h before each concentration-effect curve, and the drugs were completely washed out in between successive curves. In each experiment, one tissue served as a "time control", in which no antagonist was added so that changes in tissue sensitivity could be assessed as a function of time. […] In instances in which a single concentration of antagonist was used, pKB values were determined by the equation: […], where CR is defined as the ratio of the agonist EC50 in the presence of the antagonist to that in the absence of the antagonist.

Take `CS(=O)(=O)Nc1c(O)ccc2c1CCCC2C1=NCCN1` (racemic) [Compound A-61603, (±)-N-[5-(4,5-Dihydro-1H-imidazol-2-yl)-2-hydroxy-5,6,7,8-tetra-hydronaphthalen-1-yl]methanesulfonamide]: the “activity at α2-adrenoceptors” value in the experiment with α2-adrenoceptors is “significant activity”. Also, the Ki at human 5-HT2 receptor is 50100 nM; in experiment [1], above 100000 nM; on human 5-HT1Dα receptor ([3H]serotonin, read-out: pKi 5-HT1Dα (converted)) it was 2510 nM.

As to `COc1ccc(SC)c2c1C[C@@H]1[C@@H](C2)OCCN1C` (relative stereo) [SDZ NVI-085, (±)-trans-4-Methyl-6-methoxy-9-thiomethoxy-3,4,4a, 5,10,10a-hexahydro-2H-naphtho[2,3-b][1,4]oxazine], the Ki on human 5-HT2 receptor is 316 nM; in experiment [1], above 100000 nM; at human 5-HT1Dα receptor, 12.6 nM.

As to `COc1cc2c(cc1OC)CN(c1cc(N)c3cc(OC)c(OC)cc3n1)CC2` [Abanoquil, 2-(6,7-Dimethoxy-3,4-dihydro-1H-isoquinolin-2-yl)-6,7-dimethoxyquinolin-4-ylamine hemifumarate hydrate], the Kb in experiment [2] is 0.251 nM.

With `COc1ccccc1N1CCN(CCCNc2c(C)c(=O)n(C)c(=O)n2C)CC1` [Compound 5-MU], in experiment [2], the Kb is 1.58 nM.

In the case of `CNCCc1ccc(O)c(NS(C)(=O)=O)c1` [SK&F 102652], the “activity at α2-adrenoceptors” value in the experiment on α2-adrenoceptors was “significant activity”. The “pKi β (rat atrial β-adrenoceptors)” value in experiment [1] is on record as below 4. The “pKi 5-HT1Dα” value on human 5-HT1Dα receptor ([3H]serotonin) was 5.9.
